In patent US7205295B2, “Benzoxazin-3-ones and derivatives thereof as therapeutic agents” (Warner-Lambert Company LLC, priority 2002, dated 2007) one finds IC50 data, which are given here for 31 compounds.

As a reminder, the IC50 is the concentration that inhibits the measured activity by half.

In this experiment the target is T1, PI3Kγ (p101/p110γ protein) (Homo sapiens, UniProt P48736).
T1 construct: HA; made in house; host or cells: Spodoptera frugiperda (Sf9) cells, baculovirus co-infection
T1 sequence (P48736 whole entry, species assumed): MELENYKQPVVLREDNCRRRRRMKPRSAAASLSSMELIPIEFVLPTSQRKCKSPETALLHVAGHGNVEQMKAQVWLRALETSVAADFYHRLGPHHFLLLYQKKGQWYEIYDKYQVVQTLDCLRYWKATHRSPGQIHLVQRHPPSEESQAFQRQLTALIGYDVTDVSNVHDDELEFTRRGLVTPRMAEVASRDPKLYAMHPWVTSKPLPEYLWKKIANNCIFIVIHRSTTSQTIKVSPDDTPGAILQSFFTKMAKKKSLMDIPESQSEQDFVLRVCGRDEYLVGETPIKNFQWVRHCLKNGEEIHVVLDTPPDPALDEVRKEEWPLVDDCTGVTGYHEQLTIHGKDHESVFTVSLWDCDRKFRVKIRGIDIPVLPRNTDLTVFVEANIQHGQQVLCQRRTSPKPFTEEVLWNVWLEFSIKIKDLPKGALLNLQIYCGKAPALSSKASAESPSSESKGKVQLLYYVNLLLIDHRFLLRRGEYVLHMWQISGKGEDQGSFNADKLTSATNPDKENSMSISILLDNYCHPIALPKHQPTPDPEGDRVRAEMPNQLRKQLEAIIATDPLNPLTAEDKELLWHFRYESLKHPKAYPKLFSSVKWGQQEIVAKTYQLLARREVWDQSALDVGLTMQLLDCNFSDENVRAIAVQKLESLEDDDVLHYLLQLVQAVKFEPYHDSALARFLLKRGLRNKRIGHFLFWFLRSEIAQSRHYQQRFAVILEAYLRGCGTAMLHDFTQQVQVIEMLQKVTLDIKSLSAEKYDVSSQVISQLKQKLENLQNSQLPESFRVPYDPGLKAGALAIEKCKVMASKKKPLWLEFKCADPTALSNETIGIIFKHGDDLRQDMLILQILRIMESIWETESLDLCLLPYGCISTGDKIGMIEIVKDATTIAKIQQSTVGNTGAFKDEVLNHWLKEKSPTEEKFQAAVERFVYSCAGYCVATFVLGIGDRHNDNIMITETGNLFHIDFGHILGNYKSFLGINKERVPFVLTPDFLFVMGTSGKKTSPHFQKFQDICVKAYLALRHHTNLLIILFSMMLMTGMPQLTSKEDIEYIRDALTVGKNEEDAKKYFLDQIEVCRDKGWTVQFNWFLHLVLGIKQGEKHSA
T1 sequence (Q8WYR1 whole entry partner, species assumed): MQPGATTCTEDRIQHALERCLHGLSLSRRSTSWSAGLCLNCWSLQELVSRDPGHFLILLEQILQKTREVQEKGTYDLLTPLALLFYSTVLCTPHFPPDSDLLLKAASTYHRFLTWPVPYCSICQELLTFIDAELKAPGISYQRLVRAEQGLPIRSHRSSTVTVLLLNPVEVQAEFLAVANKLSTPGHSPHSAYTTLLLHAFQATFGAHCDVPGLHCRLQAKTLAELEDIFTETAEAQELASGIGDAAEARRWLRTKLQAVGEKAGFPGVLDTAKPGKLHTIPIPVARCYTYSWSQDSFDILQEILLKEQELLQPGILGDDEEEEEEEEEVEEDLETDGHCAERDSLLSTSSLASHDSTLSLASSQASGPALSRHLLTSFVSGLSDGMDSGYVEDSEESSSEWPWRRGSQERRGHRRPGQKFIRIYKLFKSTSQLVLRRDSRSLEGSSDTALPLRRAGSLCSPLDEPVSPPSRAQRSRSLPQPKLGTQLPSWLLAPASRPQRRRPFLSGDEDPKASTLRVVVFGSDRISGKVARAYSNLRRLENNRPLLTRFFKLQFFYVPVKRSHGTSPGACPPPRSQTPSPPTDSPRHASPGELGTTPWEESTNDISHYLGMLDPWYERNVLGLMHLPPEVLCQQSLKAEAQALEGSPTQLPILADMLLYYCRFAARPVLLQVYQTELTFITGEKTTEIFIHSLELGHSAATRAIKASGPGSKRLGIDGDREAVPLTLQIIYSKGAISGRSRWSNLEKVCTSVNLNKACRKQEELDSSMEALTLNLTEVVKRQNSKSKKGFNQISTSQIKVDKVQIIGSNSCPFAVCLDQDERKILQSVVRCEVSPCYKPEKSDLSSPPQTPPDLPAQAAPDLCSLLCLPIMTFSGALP
Nature of the experiment: PI3Kγ In Vitro Kinase Assay. Type of experiment: biochemical. The following applies: purified recombinant p101/p110γ with G protein β1/γ2 subunits; 20 μM ATP, 25 μM PIP2; 20 minutes at room temperature. The procedure, abridged:
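Reactions ran 20 min at room temperature, pairing lipid micelles (25 μM PIP2, 300 μM PE, 0.02% Na-cholate, 10 mM MgCl2) with 20 μM ATP including [γ-32P]ATP. The enzyme was recombinant p101/p110γ (2.7 nM) with G protein β1/γ2 (57.7 nM). [32P]PIP3 product was stopped with H3PO4, filtered and scintillation counted.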
As for `CC(C)(C)c1cc(CN2C(=O)COc3c(F)cc(CC4SC(=S)NC4=O)cc32)cc(C(C)(C)O)c1` (stereo not shown) [Example 236, 4-[3-tert-Butyl-5(1-hydroxy-1-methyl-ethyl)-benzyl]-8-fluoro-6-(4-oxo-2-thioxo-thazolidin-5-ylmethyl)-4H-benzo[1,4]oxazin-3-one], the IC50 came out at 5 nM.

In the case of `CC(C)(C)c1cc(CN2C(=O)COc3ccc(C=C4SC(=S)NC4=O)cc32)cc(C(C)(C)O)c1` [Example 237, 4-[3-tert-Butyl-5(1-hydroxy-1-methyl-ethyl)-benzyl]-6-(4-oxo-2-thioxo-thazolidin-5-ylmethyl)-4H-benzo[1,4]oxazin-3-one], the IC50 came out at 6 nM.

As to `O=C1NC(=S)SC1=Cc1ccc2c(c1)N(Cc1ccc(CN3CCC4(CCCCC4)CC3)cc1)C(=O)CO2` [Example 238, 4-[4-(3-Aza-spiro[5.5]undec-3-ylmethyl)-benzyl]-6-(4-oxo-2-thioxo-thiazolidin-5-ylidenemethyl)-4H-benzo[1,4]oxazin-3-one], the IC50 stood at 36 nM.

For `O=C1NC(=O)C(=Cc2ccc3c(c2)N(Cc2ccc(CN4CCC5(CCCCC5)CC4)cc2)C(=O)CO3)S1` [Example 239, 5-{4-[4-(3-Aza-spiro[5.5]undec-3-ylmethyl)-benzyl]-3-oxo-3,4-dihydro-2H-benzo[1,4]oxazin-6-ylmethylene}-thiazolidine-2,4-dione], the IC50 worked out at 39 nM.

As for `CCOC(=O)N1CCN(Cc2ccc(CN3C(=O)COc4ccc(C=C5SC(=O)NC5=O)cc43)cc2)CC1` [Example 240, 4-{4-[6-(2,4-Dioxo-thiazolidin-5-ylidenemethyl)-3-oxo-2,3-dihydro-1,4-benzoxazin-4-ylmethyl]-benzyl}-piperazine-1-carboxylic acid ethyl ester], the IC50 was 32 nM.

On to `CCOC(=O)N1CCN(Cc2ccc(CN3C(=O)COc4ccc(C=C5SC(=S)NC5=O)cc43)cc2)CC1` [Example 241, 4-{4-[3-Oxo-6-(4-oxo-2-thioxo-thiazolidin-5-ylidenemethyl)-2,3-dihydro-benzo[1,4]oxazin-4-ylmethyl]-benzyl}-piperazine-1-carboxylic acid ethyl ester], for which the IC50 stood at 52 nM.

For `O=C1NC(=S)SC1=Cc1cc(F)c2c(c1)N(CCCN1CCCCC1)C(=O)CO2` [Example 243], the IC50 was determined as 180 nM.

Consider `CC1CC(C)CN(CCCN2C(=O)COc3c(F)cc(C=C4SC(=S)NC4=O)cc32)C1` (stereo not shown) [Example 244, 4-[3-(3,5-Dimethyl-piperidin-1-yl)-propyl]-8-fluoro-6-(4-oxo-2-thioxo-thiazolidin-5-ylidenemethyl)-4H-benzo[1,4]oxazin-3-one], for which the IC50 turned out to be 185 nM.

For the compound `CC(C)N(CCCN1C(=O)COc2c(F)cc(C=C3SC(=S)NC3=O)cc21)C(C)C` [Example 245, 4-(3-Diisopropylamino-propyl)-8-fluoro-6-(4-oxo-2-thioxo-thiazolidin-5-ylidenemethyl)-4H-benzo[1,4]oxazin-3-one], the IC50 was 185 nM.

As to `O=C1NC(=O)C(=Cc2ccc3c(c2)N(Cc2ccc(Cl)c(Cl)c2)C(=O)CO3)S1` [Example 246, 5-[4-(3,4-Dichloro-benzyl)-3-oxo-3,4-dihydro-2H-benzo[1,4]oxazin-6-ylmethylene]-thiazolidine-2,4-dione], the IC50 amounted to 3 nM.

Turning to `CC(C)(C)c1cc(CN2C(=O)COc3ccc(C=C4OC(=S)NC4=O)cc32)cc(C(C)(C)C)c1` [Example 247, 4-(3,5-Di-tert-butyl-benzyl)-6-(4-oxo-2-thioxo-oxazolidin-5-ylidenemethyl)-4H-1,4-benzoxazin-3-one], the IC50 amounted to 10 nM.

For `CC(=O)Oc1ccc(CN2C(=O)COc3ccc(C=C4SC(=S)NC4=O)cc32)cc1` [Example 248, Acetic acid 4-[3-oxo-6-(4-oxo-2-thioxo-thiazolidin-5-ylidenemethyl)-2,3-dihydro-1,4-benzoxazin-4-ylmethyl]-phenyl ester], the IC50 came out at 21 nM.

With `O=C1NC(=O)C(=Cc2ccc3c(c2)N(Cc2ccc(OCc4ccccc4)cc2)C(=O)CO3)S1` [Example 249, 5-[4-(4-Benzyloxy-benzyl)-3-oxo-3,4-dihydro-2H-1,4-benzoxazin-6-ylmethylene]-thiazolidine-2,4-dione], the IC50 came to 8 nM.

Turning to `CC(C)(C)C1CC(CN2C(=O)COc3ccc(C=C4SC(=S)NC4=O)cc32)CC(C(C)(C)C)C1` (stereo not shown) [Example 250, 4-(3,5-Di-tert-butyl-cyclohexylmethyl)-6-(4-oxo-2-thioxo-thiazolidin-5-ylidenemethyl)-4H-1,4-benzoxazin-3-one], the IC50 was 175 nM.

Take `Cc1cc(CN2CCN(C)CC2)cc(CN2C(=O)COc3ccc(C=C4SC(=O)NC4=O)cc32)c1` [Example 251, 5-{4-[3-Methyl-5-(4-methyl-piperazin-1-ylmethyl)-benzyl]-3-oxo-3,4-dihydro-2H-1,4-benzoxazin-6-ylmethylene}-thiazolidine-2,4-dione]: the half-maximal inhibitory concentration (IC50) was determined as 25 nM.

Turning to `CC(C)S(=O)(=O)c1cccc(CN2C(=O)COc3ccc(C=C4SC(=O)NC4=O)cc32)c1` [Example 252, 5-{3-Oxo-4-[3-(propane-2-sulfonyl)-benzyl]-3,4-dihydro-2H-1,4-benzoxazin-6-ylmethylene}-thiazolidine-2,4-dione], the IC50 was determined as 21 nM.

Regarding `CC(C)S(=O)(=O)c1cccc(CN2C(=O)COc3ccc(C=C4SC(=S)NC4=O)cc32)c1` [Example 253, 6-(4-Oxo-2-thioxo-thiazolidin-5-ylidenemethyl)-4-[3-(propane-2-sulfonyl)-benzyl]-4H-1,4-benzoxazin-3-one], the IC50 is 16 nM.

As for `CC(C)Sc1cccc(CN2C(=O)COc3ccc(C=C4SC(=S)NC4=O)cc32)c1` [Example 254, 4-(3-Isopropylsulfanyl-benzyl)-6-(4-oxo-2-thioxo-thiazolidin-5-ylidenemethyl)-4H-1,4-benzoxazin-3-one], the IC50 is 10 nM.

Consider `Cc1cc(CN2CCN(C)CC2)cc(CN2C(=O)COc3ccc(C=C4SC(=S)NC4=O)cc32)c1` [Example 255, 4-[3-Methyl-5-(4-methyl-piperazin-1-ylmethyl)-benzyl]-6-(4-oxo-2-thioxo-thiazolidin-5-ylidenemethyl)-4H-1,4-benzoxazin-3-one], for which the IC50 is 15 nM.

On to `CN(C)S(=O)(=O)c1cccc(CN2C(=O)COc3ccc(C=C4SC(=O)NC4=O)cc32)c1` [Example 256, 3-[6-(2,4-Dioxo-thiazolidin-5-ylidenemethyl)-3-oxo-2,3-dihydro-1,4-benzoxazin-4-ylmethyl]-N,N-dimethyl-benzenesulfonamide], for which the IC50 worked out at 20 nM.

On to `O=C1NC(=S)SC1=Cc1ccc2c(c1)N(Cc1cccc(S(=O)(=O)N3CCOCC3)c1)C(=O)CO2` [Example 257, 4-[3-(Morpholine-4-sulfonyl)-benzyl]-6-(4-oxo-2-thioxo-thiazolidin-5-ylidenemethyl)-4H-1,4-benzoxazin-3-one], for which the half-maximal inhibitory concentration (IC50) was 28 nM.

In the case of `O=C1NC(=O)C(=Cc2ccc3c(c2)N(CC2CCCCC2)C(=O)CO3)S1` [Example 258, 5-(4-Cyclohexylmethyl-3-oxo-3,4-dihydro-2H-1,4-benzoxazin-6-ylmethylene)-thiazolidine-2,4-dione], the IC50 worked out at 4 nM.

Regarding `O=C1NC(=S)SC1=Cc1ccc2c(c1)N(Cc1ccc(S(=O)(=O)N3CCOCC3)cc1)C(=O)CO2` [Example 259, 4-[4-(Morpholine-4-sulfonyl)-benzyl]-6-(4-oxo-2-thioxo-thiazolidin-5-ylidenemethyl)-4H-1,4-benzoxazin-3-one], the IC50 was 13 nM.

On to `COc1c(CN2C(=O)COc3ccc(C=C4SC(=S)NC4=O)cc32)cccc1C(C)C` [Example 260, 4-(3-Isopropyl-2-methoxy-benzyl)-6-(4-oxo-2-thioxo-thiazolidin-5-ylidenemethyl)-4H-1,4-benzoxazin-3-one], for which the IC50 was found to be 4 nM.

As to `O=C1NC(=S)OC1=Cc1ccc2c(c1)N(CC1CCCCC1)C(=O)CO2` [Example 261, 4-Cyclohexylmethyl-6-(4-oxo-2-thioxo-oxazolidin-5-ylidenemethyl)-4H-1,4-benzoxazin-3-one], the IC50 is 2 nM.

For the compound `CN(C)S(=O)(=O)c1cccc(CN2C(=O)COc3ccc(C=C4SC(=S)NC4=O)cc32)c1` [Example 262, N,N-Dimethyl-3-[3-oxo-6-(4-oxo-2-thioxo-thiazolidin-5-ylidenemethyl)-2,3-dihydro-1,4-benzoxazin-4-ylmethyl]-benzenesulfonamide], the IC50 is 19 nM.

Take `CC(C)(C)c1cccc(CN2C(=O)COc3ccc(C=C4SC(=S)NC4=O)cc32)c1` [Example 263, 4-(3-tert-Butyl-benzyl)-6-(4-oxo-2-thioxo-thiazolidin-5-ylidenemethyl)-4H-1,4-benzoxazin-3-one]: the IC50 was 18 nM.

For `CN(C)S(=O)(=O)c1ccc(CN2C(=O)COc3ccc(/C=C4\SC(=S)NC4=O)cc32)cc1` [Example 264, N,N-Dimethyl-4-{3-oxo-6-[4-oxo-2-thioxo-thiazolidin-(5Z)-ylidenemethyl]-2,3-dihydro-benzo[1,4]oxazin-4-ylmethyl}-benzenesulfonamide], the IC50 was 4 nM.

Regarding `CS(=O)(=O)c1cccc(CN2C(=O)COc3ccc(/C=C4\SC(=O)NC4=O)cc32)c1` [Example 265, 5-[1-[4-(3-Methanesulfonyl-benzyl)-3-oxo-3,4-dihydro-2H-benzo[1,4]oxazin-6-yl]-meth-(Z)-ylidene]-thiazolidine-2,4-dione], the IC50 amounted to 18 nM.

`C/C(=C1/SC(=S)NC1=O)c1ccc2c(c1)N(Cc1ccccc1)C(=O)CO2` [Example 266, 4-Benzyl-6-{1-[4-oxo-2-thioxo-thiazolidin-(5Z)-ylidene]-ethyl}-4H-benzo[1,4]oxazin-3-one]: the IC50 turned out to be 1610 nM.

Take `O=C1NC(=S)S/C1=C\c1cnc2c(c1)N(CCc1ccccc1)C(=O)CO2` [Example 267, 7-[4-Oxo-2-thioxo-thiazolidin-(5Z)-ylidenemethyl]-1-phenethyl-1H-pyrido[2,3-b][1,4]oxazin-2-one]: the IC50 came to 460 nM.
